Drawing on patent US20230312481A1, “SUBSTITUTED (PHTHALAZIN-1-YLMETHYL)UREAS, SUBSTITUTED N-(PHTHALAZIN-1-YLMETHYL)AMIDES, AND ANALOGUES THEREOF” (priority 2020, published 2023), this text covers EC50 for 29 compounds.

The test system of one assay is HBV rcDNA in HepDE19 cells. In words: HepDE19 assay with bDNA quantitation of HBV rcDNA. The format is cell-based, hepatitis B virus. Particulars: Hepatitis B virus, HepDE19, 168 h, HepDE19 cells, 7 day incubation, rcDNA measured by Quantigene 2.0 bDNA assay; top concentration 25 µM; read-out: DE-19bDNA EC50. The protocol:
HepDE19 Assay With bDNA Quantitation of HBV rcDNA
HepDE19 (50,000 cells/well) were plated in 96-well collagen-coated tissue-culture treated microtiter plates in DMEM/F12 medium supplemented with 10% fetal bovine serum, 1% penicillin-streptomycin and 1 µg/mL tetracycline and incubated in a humidified incubator at 37° C. and 5% CO2 overnight. Next day, the cells were switched to fresh medium without tetracycline and incubated for 4 hours at 37° C. and 5% CO2. […] The final DMSO concentration in the assay was 0.5%. The plates were incubated for 7 days in a humidified incubator at 37° C. and 5% CO2. Following a 7 day-incubation, the level of rcDNA present in the inhibitor-treated wells was measured using a Quantigene 2.0 bDNA assay kit (Affymetrix, Santa Clara, CA) with HBV specific custom probe set and manufacturers instructions. Concurrently, the effect of compounds on cell viability was assessed using replicate plates, plated at a density of 5,000 cells/well and incubated for 4 days, to determine the ATP content as a measure of cell viability using the cell-titer glo reagent (CTG; Promega Corporation, Madison, WI) as per manufacturer’s instructions.
Representative compounds of the disclosure were tested for their abilities to inhibit formation of relaxed circular DNA (rcDNA) in a HepDE19 assay, as described elsewhere herein.
Regarding `CC(c1n[nH]c(=O)c2ccccc12)N(C)C(=O)Nc1ccc(F)c(Cl)c1` (racemic) [Compound 1, 3-(3-chloro-4-fluoro-phenyl)-1-methyl-1-[1-(4-oxo-3H-phthalazin-1-yl)ethyl]urea], the 50% effective concentration (EC50) (as a rule, the concentration needed to bring the measured effect to its halfway point) amounted to 240 nM. As for `CC(C)CN(C(=O)Nc1ccc(F)c(Cl)c1)C(C)c1n[nH]c(=O)c2ccccc12` (racemic) [Compound 2, 3-(3-chloro-4-fluoro-phenyl)-1-isobutyl-1-[1-(4-oxo-3H-phthalazin-1-yl)ethyl]urea], the concentration for a half-maximal effect (EC50) was 10 nM. As for `CC(C)CN(C(=O)Nc1ccc(F)c(Cl)c1)C(C)c1nn(C)c(=O)c2ccccc12` (racemic) [Compound 8, 3-(3-chloro-4-fluorophenyl)-1-isobutyl-1-(1-(3-methyl-4-oxo-3,4-dihydrophthalazin-1-yl)ethyl)urea], the EC50 was 20 nM. With `CC(C)CN(C(=O)Nc1ccc(F)cc1)C(C)c1nn(C)c(=O)c2ccccc12` (racemic) [Compound 9, 3-(4-fluorophenyl)-1-isobutyl-1-(1-(3-methyl-4-oxo-3,4-dihydrophthalazin-1-yl)ethyl)urea], the EC50 was 30 nM. The same measure, in the same setting: then `CC(C)CN(C(=O)Nc1ccc(F)c(Cl)c1)C(C)c1n[nH]c(=O)c2cc(Cl)ccc12` (racemic) [Compound 10, 3-(3-chloro-4-fluorophenyl)-1-(1-(6-chloro-4-oxo-3,4-dihydrophthalazin-1-yl)ethyl)-1-isobutylurea], with 20 nM; and `CC(C)CN(C(=O)Nc1ccc(F)cc1)C(C)c1n[nH]c(=O)c2cc(Cl)ccc12` (racemic) [Compound 11, 1-(1-(6-chloro-4-oxo-3,4-dihydrophthalazin-1-yl)ethyl)-3-(4-fluorophenyl)-1-isobutylurea], with 40 nM. Still for that read-out and setting: then `CC(c1n[nH]c(=O)c2cc(Cl)ccc12)N(C)C(=O)Nc1ccc(F)c(Cl)c1` (racemic) [Compound 12, 3-(3-chloro-4-fluorophenyl)-1-(1-(6-chloro-4-oxo-3,4-dihydrophthalazin-1-yl)ethyl)-1-methylurea], with 260 nM; and `CC(c1n[nH]c(=O)c2cc(Cl)ccc12)N(CCCO)C(=O)Nc1ccc(F)c(Cl)c1` (racemic) [Compound 13, 3-(3-chloro-4-fluorophenyl)-1-(1-(6-chloro-4-oxo-3,4-dihydrophthalazin-1-yl)ethyl)-1-(3-hydroxypropyl)urea], with 22 nM; and `CC(c1n[nH]c(=O)c2cc(Cl)ccc12)N(CCCO)C(=O)Nc1ccc(F)cc1` (racemic) [Compound 14, 1-(1-(6-chloro-4-oxo-3,4-dihydrophthalazin-1-yl)ethyl)-3-(4-fluorophenyl)-1-(3-hydroxypropyl)urea], with 110 nM. As to `CC(C)CN(C(=O)Nc1ccc(F)c(Cl)c1)C(C)c1n[nH]c(=O)c2cc(F)ccc12` (racemic) [Compound 15, 3-(3-chloro-4-fluorophenyl)-1-(1-(6-fluoro-4-oxo-3,4-dihydrophthalazin-1-yl)ethyl)-1-isobutylurea], the EC50 stood at 10 nM. In the case of `CC(C)CN(C(=O)Nc1ccc(F)cc1)C(C)c1n[nH]c(=O)c2cc(F)ccc12` (racemic) [Compound 16, 1-(1-(6-fluoro-4-oxo-3,4-dihydrophthalazin-1-yl)ethyl)-3-(4-fluorophenyl)-1-isobutylurea], the EC50 came to 16 nM.

Take `CC(c1n[nH]c(=O)c2cc(F)ccc12)N(C)C(=O)Nc1ccc(F)c(Cl)c1` (racemic) [Compound 17, 3-(3-chloro-4-fluorophenyl)-1-(1-(6-fluoro-4-oxo-3,4-dihydrophthalazin-1-yl)ethyl)-1-methylurea]: the EC50 came to 81 nM. The same measure, in the same setting: then `CC(c1n[nH]c(=O)c2cc(F)ccc12)N(C)C(=O)Nc1ccc(F)cc1` (racemic) [Compound 18, 1-(1-(6-fluoro-4-oxo-3,4-dihydrophthalazin-1-yl)ethyl)-3-(4-fluorophenyl)-1-methylurea], with 500 nM. On the same count and under the same terms, then `CC(C)CN(C(=O)Nc1ccc(F)cc1)C(C)c1n[nH]c(=O)c2ccccc12` (racemic) [Compound 19, 3-(4-fluorophenyl)-1-isobutyl-1-(1-(4-oxo-3,4-dihydrophthalazin-1-yl)ethyl)urea], with 48 nM; and `CC(c1nn(C)c(=O)c2cc(F)c(F)cc12)N(C)C(=O)Nc1ccc(F)c(Cl)c1` (racemic) [Compound 22, 3-(3-chloro-4-fluoro-phenyl)-1-[1-(6,7-difluoro-3-methyl-4-oxo-phthalazin-1-yl)ethyl]-1-methyl-urea], with 26 nM; and `CC(C)CN(C(=O)Nc1ccc(F)c(Cl)c1)C(C)c1nn(C)c(=O)c2cc(F)c(F)cc12` (racemic) [Compound 23, 3-(3-chloro-4-fluorophenyl)-1-(1-(6,7-difluoro-3-methyl-4-oxo-3,4-dihydrophthalazin-1-yl)ethyl)-1-isobutylurea], with 3 nM. In the case of `CC(C)CN(C(=O)Nc1ccc(F)cc1)C(C)c1nn(C)c(=O)c2cc(F)c(F)cc12` (racemic) [Compound 24, 1-(1-(6,7-difluoro-3-methyl-4-oxo-3,4-dihydrophthalazin-1-yl)ethyl)-3-(4-fluorophenyl)-1-isobutylurea], the EC50 was determined as 7 nM. In the case of `CC(c1nn(C)c(=O)c2cc(F)c(F)cc12)N(CCCO)C(=O)Nc1ccc(F)c(Cl)c1` (racemic) [Compound 25, 3-(3-chloro-4-fluorophenyl)-1-(1-(6,7-difluoro-3-methyl-4-oxo-3,4-dihydrophthalazin-1-yl)ethyl)-1-(3-hydroxypropyl)urea], the EC50 is 10 nM. `CC(c1nn(C)c(=O)c2cc(F)c(F)cc12)N(CCCO)C(=O)Nc1ccc(F)cc1` (racemic) [Compound 26, 1-(1-(6,7-difluoro-3-methyl-4-oxo-3,4-dihydrophthalazin-1-yl)ethyl)-3-(4-fluorophenyl)-1-(3-hydroxypropyl)urea]: the EC50 came out at 31 nM. Turning to `CC(C)CN(C(=O)Nc1ccc(F)c(Cl)c1)C(C)c1n[nH]c(=O)c2cc(F)c(F)cc12` (racemic) [Compound 27, 3-(3-chloro-4-fluorophenyl)-1-(1-(6,7-difluoro-4-oxo-3,4-dihydrophthalazin-1-yl)ethyl)-1-isobutylurea], the EC50 worked out at 2 nM. Turning to `CC(c1n[nH]c(=O)c2cc(F)c(F)cc12)N(C)C(=O)Nc1ccc(F)c(Cl)c1` (racemic) [Compound 29, 3-(3-chloro-4-fluorophenyl)-1-(1-(6,7-difluoro-4-oxo-3,4-dihydrophthalazin-1-yl)ethyl)-1-methylurea], the EC50 came to 23 nM.

Take `CC(c1nn(C)c(=O)c2cc(F)c(F)cc12)N(CCS(=O)(=O)NC(=O)Nc1ccc(F)c(Cl)c1)C(=O)Nc1ccc(F)c(Cl)c1` (racemic) [Compound 30, 3-(3-chloro-4-fluoro-phenyl)-1-[2-[(3-chloro-4-fluorophenyl)carbamoylsulfamoyl]ethyl]-1-[1-(6,7-difluoro-3-methyl-4-oxo-phthalazin-1-yl)ethyl]urea]: the EC50 was determined as 58 nM. Consider `CC(C)CN(C(=O)NC1CC1)C(C)c1nn(C)c(=O)c2cc(F)c(F)cc12` (racemic) [Compound 33, 3-cyclopropyl-1-(1-(6,7-difluoro-3-methyl-4-oxo-3,4-dihydrophthalazin-1-yl)ethyl)-1-isobutylurea], for which the 50% effective concentration (EC50) came out at 6300 nM.

Turning to `CCN(C(=O)c1cc2ccccc2[nH]1)C(C)c1n[nH]c(=O)c2cc(F)c(F)cc12` (racemic) [Compound 48, N-(1-(6,7-difluoro-4-oxo-3,4-dihydrophthalazin-1-yl)ethyl)-N-ethyl-1H-indole-2-carboxamide], the EC50 amounted to 60 nM.

As to `CCN(C(=O)c1cc2c(F)c(F)ccc2[nH]1)C(C)c1n[nH]c(=O)c2cc(F)c(F)cc12` (racemic) [Compound 49, N-(1-(6,7-difluoro-4-oxo-3,4-dihydrophthalazin-1-yl)ethyl)-N-ethyl-4,5-difluoro-1H-indole-2-carboxamide], the EC50 turned out to be 25 nM.

Staying with this assay, now noted: Hepatitis B virus, HepDE19, 168 h, read-out: DE-19bDNA EC50.
Turning to `CC(C)CN(C(=O)Nc1ccccc1)C(C)c1n[nH]c(=O)c2cc(F)c(F)cc12` (racemic) [Compound 28, 1-(1-(6,7-difluoro-4-oxo-3,4-dihydrophthalazin-1-yl)ethyl)-1-isobutyl-3-phenylurea], the EC50 came to 12 nM. With `CC(C)CN(C(=O)Nc1ccccc1)C(C)c1nn(C)c(=O)c2cc(F)c(F)cc12` (racemic) [Compound 34, 1-(1-(6,7-difluoro-3-methyl-4-oxo-3,4-dihydrophthalazin-1-yl)ethyl)-1-isobutyl-3-phenylurea], the EC50 was 10 nM. On the same count and under the same terms, then `CC(C)CN(C(=O)NC1CCCC1)C(C)c1nn(C)c(=O)c2cc(F)c(F)cc12` (racemic) [Compound 35, 3-cyclopentyl-1-(1-(6,7-difluoro-3-methyl-4-oxo-3,4-dihydrophthalazin-1-yl)ethyl)-1-isobutylurea], with 6900 nM. Consider `CCN(C(=O)c1cc2cc(F)ccc2[nH]1)C(C)c1n[nH]c(=O)c2cc(F)c(F)cc12` (racemic) [Compound 47, N-(1-(6,7-difluoro-4-oxo-3,4-dihydrophthalazin-1-yl)ethyl)-N-ethyl-5-fluoro-1H-indole-2-carboxamide], for which the EC50 is 41 nM.
